Laboratory results as given in patent publication US8124629B2, “Naphthylacetic acids” (Hoffmann-La Roche Inc., priority 2008, dated 2012).

Molecular target: T1, human CRTH2 (Homo sapiens, UniProt Q9Y5Y4)
T1 sequence (Q9Y5Y4 1-395): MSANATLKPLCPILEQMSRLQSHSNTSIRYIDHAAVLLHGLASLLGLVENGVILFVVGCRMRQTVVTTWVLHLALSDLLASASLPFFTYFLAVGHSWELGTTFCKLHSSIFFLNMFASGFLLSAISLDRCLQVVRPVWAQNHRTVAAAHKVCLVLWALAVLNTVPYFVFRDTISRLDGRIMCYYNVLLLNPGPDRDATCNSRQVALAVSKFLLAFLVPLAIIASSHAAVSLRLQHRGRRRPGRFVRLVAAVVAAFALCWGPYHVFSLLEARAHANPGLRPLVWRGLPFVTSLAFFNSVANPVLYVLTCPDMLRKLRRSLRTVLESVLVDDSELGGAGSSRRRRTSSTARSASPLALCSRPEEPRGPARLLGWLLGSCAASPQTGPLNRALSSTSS
Test: Human CRTH2 Receptor Binding Assay (whole cell, [3H]ramatroban)
Parameters: expressed in transfected cells; host or cells: CHO-K1
Settings: CHO-K1 cells expressing human CRTH2 and G-alpha16; 20 nM [3H]ramatroban; 1 hour, room temperature
Source text: A whole cell receptor binding assay using [^3H]ramatroban as the competing radioactive ligand was employed to evaluate the compound binding activity to human CRTH2. The radioactive ligand [^3H]ramatroban was synthesized according to Sugimoto et. al. (Eur. J. Pharmacol. 524, 30-37, 2005) to a specific activity of 42 Ci/mmol.
A cell line stably expressing human CRTH2 was established by transfecting CHO-K1 cells with two mammalian expression vectors that harbored human CRTH2 and G-alpha16 cDNAs, respectively, using FuGene® 6 transfection reagent (from Roche). Stable clones expressing CRTH2 were selected by staining each clone with BM16 (BD Pharmingen™ from BD Biosciences, a division of Becton, Dickinson and Company), which is a rat monoclonal antibody to human CRTH2. The cells were maintained as monolayer cultures in Ham's F-12 medium containing 10% fetal bovine serum, 100 units/mL penicillin, 100 μg/mL streptomycin, 2 mM glutamine, 0.5 mg/mL G418 (geneticin) for CRTH2, and 0.2 mg/mL hygromycin-B (for G-alpha 16). For whole cell receptor binding assay, the monolayer cells were rinsed once with PBS (phosphate buffered saline), dissociated using ethylenediaminetetraacetate (Versene™ EDTA from Lonza Inc.), and suspended in PBS containing 10 mM MgCl2 and 0.06% BSA (bovine serum albumin) at 1.5×10^6 cells/mL.
The binding reactions (0.2 mL) were performed in 96-well plates at room temperature in PBS containing 1.5×10^5 cells, 10 mM MgCl2, 0.06% BSA, 20 nM [^3H]ramatroban, and test compound at various concentrations. After 1 hour of binding reactions, the cells were harvested on GF™/B filter microplates (microtiter plates with embedded glass fiber from Perkin Elmer, Inc.) and washed 5 times with PBS using a Filtermate™ Harvester (a cell harvester that harvests and washes cells from microplates from PerkinElmer, Inc.). The radioactivities bound to the cells were determined using a microplate scintillation counter (TopCount® NXT, from PerkinElmer, Inc.) after adding 50 μL of Microscint™ 20 scintillation fluid (from PerkinElmer, Inc.) to each well of the filter plates. The radioactivity from non-specific binding was determined by replacing compound with 10 μM of 15(R)-15-methyl PGD2 (from Cayman Chemical Company) in the reaction mixtures. The radioactivity bound to the cells in the absence of compound (total binding) was determined by replacing compound with 0.25% of DMSO (dimethyl sulfoxide) in the reaction mixture. Specific binding data were obtained by subtracting the radioactivity of non-specific binding from each binding data.
The IC50 value is defined as the concentration of the tested compound that is required for 50% inhibition of total specific binding. In order to calculate the IC50 value, the percent inhibition data were determined for 7 concentrations for each compound. The percent inhibition for a compound at each concentration was calculated according to the following formula, [1-(specific binding in the presence of compound)/(total specific binding)]×100. The IC50 value was then obtained by fitting the percent inhibition data to a sigmoidal dose-response (4 parameter logistic) model in the XLfit® software Excel add-in program [from ID Business Solutions Ltd., model 205, where F(x)=(A+(B−A)/(1+((C/×)^D)))].

Row | IC50 | SMILES
1 | 83.8 nM | Cc1c(CC(=O)O)cc2ccc(F)cc2c1Cc1cccc(Cl)c1 [Example 15-2, [4-(3-Chloro-benzyl)-6-fluoro-3-methyl-naphthalen-2-yl]-acetic acid]
2 | 32.8 nM | Cc1c(CC(=O)O)cc2ccc(F)cc2c1Cc1ccc(F)cc1 [Example 15-3, [6-Fluoro-4-(4-fluoro-benzyl)-3-methyl-naphthalen-2-yl]-acetic acid]
3 | 79.3 nM | Cc1c(CC(=O)O)cc2ccc(F)cc2c1Cc1ccc(OC(F)(F)F)cc1 [Example 15-4, [6-Fluoro-3-methyl-4-(4-trifluoromethoxy-benzyl)-naphthalen-2-yl]-acetic acid]
4 | 27.6 nM | COC(=O)c1cccc(Cc2c(C)c(CC(=O)O)cc3ccc(F)cc23)c1 [Example 15-5, 3-(3-Carboxymethyl-7-fluoro-2-methyl-naphthalen-1-ylmethyl)-benzoic acid methyl ester]
5 | 16.1 nM | CS(=O)(=O)c1ccc(C(O)c2cc(CC(=O)O)cc3ccc(F)cc23)c(Cl)c1 (stereo not drawn) [Example 16-1, {4-[(2-Chloro-4-methanesulfonyl-phenyl)-hydroxy-methyl]-6-fluoro-naphthalen-2-yl}-acetic acid]
6 | 15.9 nM | CS(=O)(=O)c1ccc(C(O)c2cc(CC(=O)O)cc3ccc(Cl)cc23)cc1 (stereo not drawn) [Example 16-3, {6-Chloro-4-[hydroxy-(4-methanesulfonyl-phenyl)-methyl]-naphthalen-2-yl}-acetic acid]
7 | 31.9 nM | Cc1cc(S(C)(=O)=O)ccc1C(O)c1cc(CC(=O)O)cc2ccc(F)cc12 (stereo not drawn) [Example 16-4, {6-Fluoro-4-[hydroxy-(4-methanesulfonyl-2-methyl-phenyl)-methyl]-naphthalen-2-yl}-acetic acid]
8 | 8 nM | CS(=O)(=O)c1ccc(C(O)c2cc(CC(=O)O)cc3ccc(F)cc23)cc1 (stereo not drawn) [Example 16-5, {6-Fluoro-4-[hydroxy-(4-methanesulfonyl-phenyl)-methyl]-naphthalen-2-yl}-acetic acid]
9 | 35.2 nM | CS(=O)(=O)c1ccc(C(O)c2cc(CC(=O)O)cc3ccccc23)cc1 (stereo not drawn) [Example 16-6, {4-[Hydroxy-(4-methanesulfonyl-phenyl)-methyl]-naphthalen-2-yl}-acetic acid]
10 | 17.4 nM | CCS(=O)(=O)c1ccc(C(O)c2cc(CC(=O)O)cc3ccc(F)cc23)cc1 (stereo not drawn) [Example 16-7, {4-[(4-Ethanesulfonyl-phenyl)-hydroxy-methyl]-6-fluoro-naphthalen-2-yl}-acetic acid]
11 | 18.9 nM | CCS(=O)(=O)c1ccc(C(O)c2cc(CC(=O)O)cc3ccc(F)cc23)c(C)c1 (stereo not drawn) [Example 16-8, {4-[(4-Ethanesulfonyl-2-methyl-phenyl)-hydroxy-methyl]-6-fluoro-naphthalen-2-yl}-acetic acid]
12 | 5.7 nM | CS(=O)(=O)c1ccc(C(F)(F)c2cc(CC(=O)O)cc3ccc(F)cc23)c(Cl)c1 [Example 17-1, {4-[(2-Chloro-4-methanesulfonyl-phenyl)-difluoro-methyl]-6-fluoro-naphthalen-2-yl}-acetic acid]
13 | 3.1 nM | CS(=O)(=O)c1ccc(C(F)(F)c2cc(CC(=O)O)cc3ccc(F)cc23)cc1 [Example 17-2, {4-[Difluoro-(4-methanesulfonyl-phenyl)-methyl]-6-fluoro-naphthalen-2-yl}-acetic acid]
14 | 3.9 nM | CCS(=O)(=O)c1ccc(C(F)(F)c2cc(CC(=O)O)cc3ccc(F)cc23)cc1 [Example 17-3, {4-[(4-Ethanesulfonyl-phenyl)-difluoro-methyl]-6-fluoro-naphthalen-2-yl}-acetic acid]
15 | 40.4 nM | COC(c1ccc(S(C)(=O)=O)cc1)c1cc(CC(=O)O)cc2ccc(F)cc12 (stereo not drawn) [Example 18-1, {6-Fluoro-4-[(4-methanesulfonyl-phenyl)-methoxy-methyl]-naphthalen-2-yl}-acetic acid]
16 | 11.8 nM | Cc1c(CC(=O)O)cc2ccc(F)cc2c1C(O)c1ccc(S(C)(=O)=O)cc1 (stereo not drawn) [Example 19-1, {6-Fluoro-4-[hydroxy-(4-methanesulfonyl-phenyl)-methyl]-3-methyl-naphthalen-2-yl}-acetic acid]
17 | 9.5 nM | O=C(O)Cc1cc(C(O)c2ccc(S(=O)(=O)N3CCOCC3)cc2)c2cc(F)ccc2c1 (stereo not drawn) [Example 19-2, (6-Fluoro-4-{hydroxy-[4-(morpholine-4-sulfonyl)-phenyl]-methyl}-naphthalen-2-yl)-acetic acid]
18 | 22.1 nM | CNS(=O)(=O)c1ccc(C(O)c2cc(CC(=O)O)cc3ccc(F)cc23)cc1 (stereo not drawn) [Example 20-1, {6-Fluoro-4-[hydroxy-(4-methylsulfamoyl-phenyl)-methyl]-naphthalen-2-yl}-acetic acid]
